Experimental data reported in ChEMBL document CHEMBL4346724, “Porphyrinoid photosensitizers mediated photodynamic inactivation against bacteria” (Eur J Med Chem, 2019).

Key:
[1] = system: Helicobacter pylori; assay: Photodynamic antibacterial activity against Helicobacter pylori infected in patient assessed as bacterial eradication at 20 mg/lg, po after 4 hrs in presence of white light relative to control; type: functional
[2] = system: Helicobacter pylori; assay: Photodynamic antibacterial activity against Helicobacter pylori infected in patient assessed as bacterial eradication at 20 mg/lg, po after 4 hrs in presence of blue light relative to control; type: functional
[3] = system: Escherichia coli; assay: Photodynamic antibacterial activity against Escherichia coli ATCC 25922 assessed as reduction in bacterial burden after 24 hrs in presence of diode laser at 6 J/cm2; type: functional
[4] = system: Saccharomyces cerevisiae; assay: Photodynamic fungal activity against Saccharomyces cerevisiae assessed as reduction in fungal burden at 100 nM; type: functional
[5] = system: Escherichia coli; assay: Photodynamic antibacterial activity against Escherichia coli assessed as reduction in bacterial burden at 5 uM after 15 mins in presence of light irradiation at 64.8 J/cm2; type: functional, organism-based
[6] = system: Enterococcus faecalis; assay: Photodynamic antibacterial activity against Enterococcus faecalis assessed as reduction in bacterial burden in presence of light irradiation; type: functional, organism-based
[7] = system: Staphylococcus aureus; assay: Photodynamic antibacterial activity against Staphylococcus aureus assessed as reduction in bacterial burden at 100 nM; type: functional
[8] = system: Pseudomonas aeruginosa; assay: Photodynamic antibacterial activity against Pseudomonas aeruginosa assessed as reduction in biofilm formation at 0.5 mg/ml in presence of light at 100 J/cm2; type: functional
[9] = system: Pseudomonas aeruginosa; assay: Photodynamic antibacterial activity against Pseudomonas aeruginosa assessed as biofilm formation at 0.5 mg/ml in presence of light at 100 J/cm2 relative to control; type: functional
[10] = system: Enterococcus faecalis; assay: Photodynamic antibacterial activity against Enterococcus faecalis assessed as reduction in bacterial burden at 5 uM after 15 mins in presence of light irradiation at 21.6 J/cm2; type: functional
[11] = system: Enterococcus faecalis; assay: Photodynamic antibacterial activity against Enterococcus faecalis assessed as reduction in bacterial burden at 10 uM in presence of light irradiation at 100 J/cm2; type: functional
[12] = system: Enterococcus faecalis; assay: Photodynamic antibacterial activity against Enterococcus faecalis assessed as reduction in bacterial burden at 30 uM in presence of light irradiation at 100 J/cm2; type: functional
[13] = system: Enterococcus faecalis; assay: Dark toxicity against Enterococcus faecalis assessed as reduction in bacterial burden; type: organism-based; conditions: in vivo
[14] = system: Pseudomonas aeruginosa; assay: Photodynamic antibacterial activity against Pseudomonas aeruginosa assessed as bacterial killing at 2.5 mg/ml in presence of light at 100 J/cm2 relative to control; type: functional
[15] = system: Pseudomonas aeruginosa; assay: Photodynamic antibacterial activity against Pseudomonas aeruginosa assessed as bacterial burden at 1 to 10 uM preincubated for 10 mins in dark condition followed by exposure of LED light at 66 to 266 J/cm2 relative to control; type: functional
[16] = system: Enterococcus faecalis; assay: Photodynamic antibacterial activity against Enterococcus faecalis assessed as reduction in bacterial burden at 5 uM after 15 mins in presence of light irradiation at 14.4 J/cm2; type: functional
[17] = system: Pseudomonas aeruginosa; assay: Photodynamic antibacterial activity against Pseudomonas aeruginosa assessed as reduction in bacterial burden at 100 to 225 uM preincubated with bacteria followed by exposure of mercury vapor lamp light at 100 J/cm2 for 10 mins; type: functional
[18] = system: Enterococcus faecalis; assay: Photodynamic antibacterial activity against Enterococcus faecalis assessed as reduction in bacterial burden at 10 uM after 15 mins in presence of light irradiation at 64.8 J/cm2; type: functional
[19] = system: Enterococcus faecalis; assay: Photodynamic antibacterial activity against Enterococcus faecalis assessed as reduction in bacterial burden at 5 uM after 15 mins in presence of light irradiation at 64.8 J/cm2; type: functional
[20] = system: Pseudomonas aeruginosa; assay: Photodynamic antibacterial activity against Pseudomonas aeruginosa assessed as reduction in bacterial burden at 1 to 10 uM preincubated for 10 mins in dark condition followed by exposure of LED light at 66 to 266 J/cm2; type: functional
[21] = system: Pseudomonas aeruginosa; assay: Photodynamic antibacterial activity against Pseudomonas aeruginosa assessed as reduction in biofilm formation at 5 mg/ml in presence of light at 100 J/cm2 relative to control; type: functional; set-up: scale not given: the % may be the effect or the level left
[22] = system: Pseudomonas aeruginosa; assay: Photodynamic antibacterial activity against Pseudomonas aeruginosa assessed as reduction in bacterial burden at 225 uM in presence of light at 100 J/cm2; type: functional
[23] = system: Staphylococcus aureus; assay: Photodynamic antibacterial activity against Staphylococcus aureus assessed as reduction in biofilm activity at 2.5 uM incubated for 10 mins in presence of tungsten halogen lamp light exposure at 22.5 to 180 J/cm2; type: functional
[24] = system: Pseudomonas aeruginosa; assay: Photodynamic antibacterial activity against Pseudomonas aeruginosa assessed as reduction in biofilm formation at 20 uM incubated for 10 mins in presence of tungsten halogen lamp light exposure at 22.5 to 180 J/cm2; type: functional
[25] = system: Staphylococcus aureus; assay: Photodynamic antibacterial activity against Staphylococcus aureus assessed as bacterial killing within 15 mins in presence of tungsten lamps light at 37 uEm'-2sec'-1 by spectrophotometic analysis relative to control; type: functional
[26] = system: Escherichia coli; assay: Photodynamic antibacterial activity against Escherichia coli assessed as reduction in bacterial burden at 0.5 to 1 uM after 15 mins in presence of light irradiation at 1004 J/cm2; type: functional
[27] = system: Porphyromonas gingivalis; assay: Photodynamic antibacterial activity against Porphyromonas gingivalis assessed as reduction in bacterial viability at 10 uM in presence of light at 5.3 to 20.1 J/cm2 by propidium iodide staining-based fluorescence assay; type: functional
[28] = system: Aggregatibacter actinomycetemcomitans; assay: Photodynamic antibacterial activity against Aggregatibacter actinomycetemcomitans assessed as reduction in bacterial viability at 10 uM in presence of light at 5.3 J/cm2 by propidium iodide staining-based fluorescence assay; type: functional
[29] = system: Eikenella corrodens; assay: Photodynamic antibacterial activity against Eikenella corrodens assessed as reduction in bacterial viability at 10 uM in presence of light at 20.1 J/cm2 by propidium iodide staining-based fluorescence assay; type: functional
[30] = system: Fusobacterium nucleatum; assay: Photodynamic antibacterial activity against Fusobacterium nucleatum assessed as reduction in bacterial viability at 10 uM in presence of light at 5.3 to 20.1 J/cm2 by propidium iodide staining-based fluorescence assay; type: functional
[31] = system: Aggregatibacter actinomycetemcomitans; assay: Photodynamic antibacterial activity against Aggregatibacter actinomycetemcomitans assessed as reduction in bacterial viability at 10 uM in presence of light at 20.1 J/cm2 by propidium iodide staining-based fluorescence assay; type: functional
[32] = system: Capnocytophaga gingivalis; assay: Photodynamic antibacterial activity against Capnocytophaga gingivalis assessed as reduction in bacterial viability at 10 uM in presence of light at 5.3 to 20.1 J/cm2 by propidium iodide staining-based fluorescence assay; type: functional

NCC(=O)CCC(=O)O [AMINOLEVULINIC ACID]
Activity [1]: 85%
Activity [2]: 66%

C=Cc1c(C)c2cc3nc(c(C=O)c4[nH]c(cc5nc(cc1[nH]2)C(C)=C5C)c(C)c4C(=O)O)[C@@H](CCC(=O)O)[C@@H]3C
log(activity) [3]: 0.17

CC1(C)Cc2cc3[nH]c(cc4nc(cc5[nH]c(cc1n2)cc5CN(CCO)CCO)CC4(C)C)cc3CN(CCO)CCO
log(activity) [4]: >6

C[n+]1ccc(-c2c3nc(c(-c4ccc(C(=O)O)cc4)c4ccc([nH]4)c(-c4cc[n+](C)cc4)c4nc(c(-c5ccc(C(=O)O)cc5)c5ccc2[nH]5)C=C4)C=C3)cc1
log(activity) [5]: > 3
log(activity) [6]: 0.88

C[n+]1ccc(-c2c3nc(c(-c4cc[n+](C)cc4)c4ccc([nH]4)c(-c4ccc(C(=O)O)cc4)c4nc(c(-c5ccc(C(=O)O)cc5)c5ccc2[nH]5)C=C4)C=C3)cc1
log(activity) [5]: > 3
log(activity) [6]: 7.03

CC1(C)Cc2cc3[nH]c(cc4nc(cc5[nH]c(cc1n2)cc5C(=O)NCC[N+](C)(C)C)CC4(C)C)cc3C(=O)NCC[N+](C)(C)C
log(activity) [7]: 5

C[n+]1ccc(-c2c3nc(c(-c4cc[n+](C)cc4)c4ccc([nH]4)c(-c4cc[n+](C)cc4)c4nc(c(-c5cc[n+](C)cc5)c5ccc2[nH]5)C=C4)C=C3)cc1.Cc1ccc(S(=O)(=O)[O-])cc1.Cc1ccc(S(=O)(=O)[O-])cc1.Cc1ccc(S(=O)(=O)[O-])cc1.Cc1ccc(S(=O)(=O)[O-])cc1
log(activity) [8]: 4
Activity [9]: 99.9%

COC(=O)c1ccc(-c2c3nc(c(-c4cc[n+](C)cc4)c4ccc([nH]4)c(-c4cc[n+](C)cc4)c4nc(c(-c5cc[n+](C)cc5)c5ccc2[nH]5)C=C4)C=C3)cc1.[I-].[I-].[I-]
log(activity) [10]: 7

Oc1cccc(-c2c3nc(c(-c4cccc(O)c4)c4ccc([nH]4)c(-c4cccc(O)c4)c4nc(c(-c5cccc(O)c5)c5ccc2[nH]5)CC4)C=C3)c1 [TEMOPORFIN]
log(activity) [11]: 5.8
log(activity) [12]: 6.7
log(activity) [13]: 1.5

C[n+]1ccc(-c2c3nc(c(-c4cc[n+](C)cc4)c4ccc([nH]4)c(-c4cc[n+](C)cc4)c4nc(c(-c5cc[n+](C)cc5)c5ccc2[nH]5)C=C4)C=C3)cc1.[I-].[I-].[I-].[I-]
Activity [14]: >99%
Activity [15]: >80%
log(activity) [16]: 7.35
log(activity) [17]: 4.1
log(activity) [18]: 5.07
log(activity) [19]: 7.33
log(activity) [20]: <1
Activity [21]: >99%
log(activity) [10]: 7
log(activity) [22]: 1.2

CN(C)CCCOc1ccc(-c2c3nc(c(-c4ccc(OCCCN(C)C)cc4)c4ccc([nH]4)c(-c4ccc(OCCCN(C)C)cc4)c4nc(c(-c5ccc(OCCCN(C)C)cc5)c5ccc2[nH]5)C=C4)C=C3)cc1
log(activity) [23]: 8
log(activity) [24]: 3

CC1=Cc2cc3[nH]c(cc4nc(cc5[nH]c(cc1n2)cc5C)C(C)=C4CCC(=O)O)c(CCC(=O)O)c3C
Activity [25]: 99.9%

C[n+]1ccc(-c2c3nc(c(-c4cc[n+](C)cc4)c4ccc([nH]4)c(-c4c(F)c(F)c(F)c(F)c4F)c4nc(c(-c5cc[n+](C)cc5)c5ccc2[nH]5)C=C4)C=C3)cc1.[I-].[I-].[I-]
log(activity) [26]: 3

CC[C@H](C)CCCCCCCCCCC(=O)OC[C@H]1O[C@@H](OC(=O)/C(C)=C/C=C/C(C)=C/C=C/C(C)=C/C=C/C=C(C)/C=C/C=C(\C)CCC=C(C)C)[C@H](O)[C@@H](O)[C@@H]1O
log(activity) [27]: 4.9
log(activity) [28]: -0.2
log(activity) [29]: 3
log(activity) [30]: 5.3
log(activity) [31]: -1
log(activity) [32]: 6.7
